Laboratory results published in patent publication US6130204A (Merck & Co., Inc., priority 1998, dated 2000).

What follows are compounds tested on LNCaP prostate tumor cells (assay: In vitro cytotoxicity of peptidyl derivatives of doxorubicin (Alamar Blue assay)). Conditions: FIG. 4, cells incubated 3 days at 37° C.
Format: cell-based, human
Experimental: The cytotoxicities of the non-cleaveable oligopeptide-doxorubicin conjugates, prepared as described in Example 4, against a line of cells which is known to be killed by unmodified doxorubicin were assessed with an Alamar Blue assay. Specifically, cell cultures of LNCaP prostate tumor cells, which are a human metastatic prostate adenocarcinoma isolated from a needle biopsy of a lymph node (LNCaP.FGC: American Type Culture Collection, ATCC CRL 1740), or DuPRO cells in 96 well plates were diluted with medium containing various concentrations of a given conjugate (final plate well volume of 200 μl). The cells were incubated for 3 days at 37° C. and then 20 μl of Alamar Blue was added to the assay well. The cells were further incubated and the assay plates were read on a EL-310 ELISA reader at the dual wavelengths of 570 and 600 nm at 4 and 7 hours after addition of Alamar Blue. Relative percentage viability at the various concentration of conjugate tested was then calculated versus control (no conjugate) cultures. Cytotoxicities of unmodified doxorubicin and unmodified oligopeptide were also assessed.
`COc1cccc2c1C(=O)c1c(O)c3c(c(O)c1C2=O)C[C@@](O)(C(=O)CO)C[C@@H]3O[C@H]1C[C@H](N)[C@H](O)[C@H](C)O1` [doxorubicin] showed an EC50 of 300 nM.

The compounds below were run on free PSA (assay: not given). Conditions: not given.
With “Ac-AlaAsnLysIleSerTyrGln.vertline.SerSerSerThrLeu” the cleaved bond was “Gln-Ser”.
“Ac-LysIleSerTyrGln.vertline.SerSer-amide” was tested, and the cleaved bond was “Gln-Ser”.
For “Ac-AlaAsnLysIleSerTyrGln.vertline.SerSerGlnThrGlu-amide”, the cleaved bond was “Gln-Ser”.
For “Ac-AlaAsnLysIleSerTyrGln.vertline.SerAlaLysThrGlu-amide”, the cleaved bond was “Gln-Ser”.
For “Ac-SerTyrGln.vertline.SerSerThrGlu-amide”, the cleaved bond was “Gln-Ser”.
With “Ac-hArg(Cha)Gln.vertline.SerSerSer(ethylester-Leu)” the cleaved bond was “Gln-Ser”.
For “Ac-AlaAsnLysAlaSerTyrGln.vertline.SerAlaSerThrGlu-amide”, the cleaved bond was “Gln-Ser”.
In the case of “Ac-AlaAsnSerTyrGln.vertline.SerSerSerThrGlu-amide”, the cleaved bond is reported as “Gln-Ser”.
With Ac-hArgTyrGln.vertline.SerSerSer(MeLeu) the cleaved bond was “Gln-Ser”.
For “Ac-AlaAsnGluIleSerTyrGln.vertline.SerAlaSerThrGlu-amide”, the cleaved bond was “Gln-Ser”.
In the case of “Ac-AsnLysIleSerTyrGln.vertline.SerSer-amide”, the cleaved bond is reported as “Gln-Ser”.
With “Ac-AlaAsnLysIleSerTyrGln.vertline.SerSerSerThrLeu-amide” the cleaved bond was “Gln-Ser”.
“AlaAsnLysIleSerTyrGln.vertline.SerSerSerThrGlu-amide” was tested, and the cleaved bond was “Gln-Ser”.
With “Ac-SerTyrGln.vertline.SerSerSerThrGlu-amide” the cleaved bond was “Gln-Ser”.
In the case of “Ac-AlaAsnLysIleSerTyrGln.vertline.SerSerSerThrGlu-amide”, the cleaved bond is reported as “Gln-Ser”.
With “Ac-AlaAsnLysAlaSerTyrGln.vertline.SerAlaSerCys-amide” the cleaved bond was “Gln-Ser”.
For “Ac-AlaSerTyrGln.vertline.SerSerThrGlu-amide”, the cleaved bond was “Gln-Ser”.
For “Ac-AlaAspLysAlaLysTyrGln.vertline.SerSer(Cha)-NHNH2”, the cleaved bond was “Gln-Ser”.
In the case of “Ac-AlaAsnLysIleSerTyrGln.vertline.SerAlaSerThrGlu-amide”, the cleaved bond is reported as “Gln-Ser”.
With “Ac-AlaAsnLysSerTyrGln.vertline.SerSerThrGlu-amide” the cleaved bond was “Gln-Ser”.
For “Ac-AlaAsnLysIleSerTyrTyr.vertline.SerSerSerThrGlu-amide”, the cleaved bond was “Tyr-Ser”.
“Ac-AlaAsnLysIleSerTyrGln.vertline.SerSerThrGlu-amide” was tested, and the cleaved bond was “Gln-Ser”.
With “Ac-AlaSerTyrGln.vertline.SerSerLeu-amide” the cleaved bond was “Gln-Ser”.
In the case of “Ac-AlaSerTyrGln.vertline.SerSerSerThrGlu-amide”, the cleaved bond is reported as “Gln-Ser”.
For “Ac-AlaAsnLysIleSerTyrTyr.vertline.SerAlaSerThrGlu-amide”, the cleaved bond was “Tyr-Ser”.
“Ac-AlaAsnLysIleSerTyrGln.vertline.SerSerLysThrGlu-amide” was tested, and the cleaved bond was “Gln-Ser”.
In the case of “Ac-AlaAsnLysIleSerTyrGln.vertline.SerThrGlu-amide”, the cleaved bond is reported as “Gln-Ser”.
“Ac-hArgTyrGln.vertline.SerSerSer(Ethylester-Leu)” was tested, and the cleaved bond was “Gln-Ser”.
